The conditions of data set [1]: 298.2 K; 101.33 kPa; Liquid; Vibrating tube method.
A short description of data set [2]: refractive index (Na D-line) (dimensionless). The note with it: 298.2 K; 101.33 kPa; Liquid; Standard Abbe refractometry.

Numbers after ± are expanded uncertainties.

By mass density is commonly meant mass per unit of volume. What is called refractive index is a measure of how strongly the sample bends light. Regarding `CCCCCCCCCCO` [decan-1-ol], the mass density in data set [1] was determined as 826.8 ± 0.36 kg/m3. In addition, in data set [2], the refractive index is on record as 1.4344 ± 0.2.

For the compound `O=CO` [formic acid], in data set [1], the mass density is recorded as 1219.32 ± 0.61 kg/m3. In addition, in data set [2], the refractive index was 1.3713 ± 0.2.

Take `O` [water]: the refractive index in data set [2] is 1.3324 ± 0.2.
